These results are taken from publication PMC8588511, “Chromane Derivatives from Underground Parts of Iris tenuifolia and Their In Vitro Antimicrobial, Cytotoxicity and Antiproliferative Evaluation” (Molecules, 2021).

Data set [1] deals with Staphylococcus aureus (MRSA 134/94 R9). Kind of data set: agar diffusion antimicrobial assay. The data set is classed as cell-based. Conditions: 50 μL of 1 mg/mL in DMSO, 18 h, ciprofloxacin 5 µg/mL. Here is the method: (§1) Compounds 1, 2, 3, 5, 9, and 10 were tested for their antimicrobial activities against S. aureus (JMRC:STI 10760), B. subtilis (JMRC:STI 10880), S. aureus MRSA (JMRC: ST 33793) E. faecalis VRE (JMRC: ST 33700), E. coli (JMRC:ST 33699), P. aeruginosa (JMRC:ST 33771), P. aeruginosa (JMRC:ST 33772), M. vaccae (JMRC:STI 10670), S. salmonicolor (JMRC:ST 35974), C. albicans (JMRC:STI 25000), and P. notatum (JMRC:STI 50164)) using agar diffusion assay as previously published. Strains were obtained from the Jena Microbial Resource Collection (JMRC). The bacteria were cultivated on standard I nutrient agar in Petri dishes at 37 °C. Antifungal bioassays were conducted at 30 °C using the basidiomycetous yeast S. salmonicolor and the filamentous ascomycete P. notatum, which were cultivated on malt agar, and the ascomycetous yeast C. albicans, which was cultivated on yeast morphology agar. After inoculation of the test organisms, a disc (9 mm in diameter) was removed from the center of the Petri dish and 50 μL of the test solution (1 mg/mL in DMSO) was added to the cavity. After 18 h of incubation, the inhibiting areola were measured and documented as diameters in mm. Ciprofloxacin (5 µg/mL in deionized water) and amphotericin B (10 µg/mL in DMSO/MeOH 1:1) were used as reference substances against bacterial and fungal strains, respectively.
(In general: Agar diffusion results depend on both activity and mobility in agar.)

Data set [2] deals with Pseudomonas aeruginosa (SG137 B7). In words: agar diffusion antimicrobial assay. The data set is classed as cell-based. Conditions: 50 μL of 1 mg/mL in DMSO, 18 h, ciprofloxacin 5 µg/mL. Here is the method: as §1
Data set [3] deals with Pseudomonas aeruginosa (K799/61 B9). Kind of data set: agar diffusion antimicrobial assay. Type of data set: cell-based. Conditions: Pseudomonas aeruginosa (K799/61 B9); 50 μL of 1 mg/mL in DMSO, 18 h; ciprofloxacin 5 µg/mL. Here is the method:
as §1

The subject of data set [4] is Enterococcus faecalis (VRE 1528 R10). In words: agar diffusion antimicrobial assay. Type of data set: cell-based. To be noted: for zone of inhibition at 1000 µg/mL: Enterococcus faecalis (VRE 1528 R10), 50 μL of 1 mg/mL in DMSO, 18 h, ciprofloxacin 5 µg/mL, read-out: Inhibition Zone of Test Microorganism; for antibacterial activity in words: Enterococcus faecalis VRE, agar diffusion. Here is the method: as §1

The nature of data set [5]: cytotoxicity assay (methylene blue). Type of data set: cell-based, human. To be noted: human, HeLa, 72 h, read-out: Cytotoxicity CC50 (CI 95%). Here is the method:
(§2) In this assay, K-562 (DSM ACC 10), THP-1 (DSM ACC 16), and HeLa (DSM ACC 57) were maintained in Roswell Park Memorial Institute (RPMI) 1640 medium (Cambrex 12-167F) while HUVEC (ATCC CRL-1730) and A549 (DSM ACC 107) were cultured in Dulbecco’s Modified Eagle’s Medium (DMEM) (Cambrex 12-614F). Cells that were grown in the appropriate cell culture medium were supplemented with 10 mL/L ultraglutamine 1 (Cambrex 17-605E/U1), 550 µL/L (50 mg/mL) gentamicin sulfate (Cambrex 17-518Z), and 10% heat inactivated fetal bovine serum (GIBCO Life Technologies 10270-106) at 37 °C. The tested compounds were dissolved in DMSO, and the cells were seeded in 96-well plates at a density of 1 × 10^4 cells/well. As for the antiproliferative effect of the compounds, the cells were incubated for 72 h, and GI50 values were evaluated to be defined as the concentration causing 50% inhibition of proliferation compared to the untreated control. With regard to the cytotoxic assay, HeLa cells were pre-incubated for 48 h without the test compounds. Then, the cells were exposed with different concentrations of compounds and incubated for 72 h. After that, the adherent HeLa cells were fixed by glutaraldehyde and stained with a 0.05% solutions of methylene blue (SERVA 29198) for 15 min. CC50 was evaluated to be defined as the concentration required for the death of 50% of the cell monolayer as compared to control groups. Under our experimental conditions, the optical density measured from the CellTiter-Blue reagent and methylene blue assay is proportional to the number of viable cells. In this experiment, absorbances were measured at 570 nm against the reference wavelength of 600 nm (CellTiter-Blue assay) and at 660 nm (methylene blue assay). Doxorubicin (Adriamycin®) and imatinib (Gleevec®) were used as positive controls for HUVEC, K-562, and HeLa cells. A repeat determination has been conducted in all experiments, and four replicates were assayed. The calculations of the different values of GI50 and CC50 were performed with software Magellan version 3.00 (Tecan Trading AG, Maennedorf, Switzerland).

Data set [6] relates to human lung carcinoma cells (A549). Kind of data set: antiproliferation assay (CellTiter-Blue). The data set is classed as cell-based. Here is the method:
as §2
(The colour change of resazurin is a common sign of viable cells or microbes.)

Data set [7] deals with human umbilical vein endothelial cells (HUVEC). Kind of data set: antiproliferation assay (CellTiter-Blue). The data set is classed as cell-based. To be noted: Homo sapiens, 72 h, read-out: Antiproliferative Effect, GI50 (CI 95%). Here is the method:
as §2

Data set [8] concerns human acute monocytic leukemia cells (THP-1). In words: antiproliferation assay (CellTiter-Blue). The data set is classed as cell-based. Here is the method:
as §2

Data set [9] has as its system human chronic myeloid leukemia cells (K-562). In words: antiproliferation assay (CellTiter-Blue). The data set is classed as cell-based. Conditions: Homo sapiens, read-out: Antiproliferative Effect, GI50 (CI 95%). Here is the method:
as §2

Data set [10] relates to Mycobacterium vaccae (10670 M4). In words: agar diffusion antimicrobial assay. Type of data set: cell-based. Here is the method: as §1
The subject of data set [11] is Bacillus subtilis (6633 B1). In words: agar diffusion antimicrobial assay. The data set is classed as cell-based. Here is the method:
as §1

Data set [12] concerns HUVEC, K-562, THP-1, A549, and HeLa cell lines. In words: antiproliferative and cytotoxicity assays, all applied cell lines. The data set is classed as cell-based. Here is the method: The tested compounds were dissolved in DMSO, and the cells were seeded in 96-well plates at a density of 1 × 10^4 cells/well. […] With regard to the cytotoxic assay, HeLa cells were pre-incubated for 48 h without the test compounds. Then, the cells were exposed with different concentrations of compounds and incubated for 72 h. […] Under our experimental conditions, the optical density measured from the CellTiter-Blue reagent and methylene blue assay is proportional to the number of viable cells. In this experiment, absorbances were measured at 570 nm against the reference wavelength of 600 nm (CellTiter-Blue assay) and at 660 nm (methylene blue assay). […] A repeat determination has been conducted in all experiments, and four replicates were assayed. The calculations of the different values of GI50 and CC50 were performed with software Magellan version 3.00 (Tecan Trading AG, Maennedorf, Switzerland).

Setting [13] is: Homo sapiens, A549, 72 h; read-out: Antiproliferative Effect, GI50 (CI 95%).
The mark [14] stands for this setting: Homo sapiens, THP-1, 72 h; read-out: Antiproliferative Effect, GI50 (CI 95%).

Molecules are shown by their SMILES. Where two headings read alike, the source gives them in different places.

What is called zone of inhibition is the extent of the growth-free halo in a diffusion test. Broadly, the CC50 is the concentration at which the toxic effect on the cells reaches its halfway point. By GI50 is commonly meant the concentration giving 50% growth inhibition. For `O=C1C=CCCC(O)C2CC(=O)c3c(O)cc(cc3O2)OC2OC(CO1)C(O)C(O)C2O` (stereo not drawn) [Compound 1, Moniristenulide], the “Inhibition Zone of Test Microorganism” value in data set [1], in data set [2] and in data set [3] was “-” each time. Moreover, the zone of inhibition at 1000 µg/mL in data set [4] is 13 mm. Besides, the “antibacterial activity in words” value in data set [4] is “selective activity”. Besides, the CC50 at 72 h in data set [5] (HeLa cells (DSM ACC 57)) is above 100 µM. Further, the GI50 in data set [6] (setting [13]) was above 100 µM; in [7] it was above 100 µM; in [8] (setting [14]) it was above 100 µM; in [9] (K562, K-562, 72 h) it was above 100 µM.
For the compound `COc1c2c(cc3c1C1CC(O3)c3ccccc3O1)OCO2` (stereo not drawn) [Compound 2, 5-Methoxy-6,7-methylenedioxy-4-O-2′-cycloflavan], the “antibacterial activity in words” value in [10] (Mycobacterium vaccae, agar diffusion, compared to ciprofloxacin) is “demonstrated activity”; in data set [4] it was “demonstrated activity”; in data set [11] (Bacillus subtilis, agar diffusion, compared to ciprofloxacin), “demonstrated activity”. Besides, the zone of inhibition at 1000 µg/mL came out at 17 mm in data set [10] (Mycolicibacterium vaccae, Mycobacterium vaccae (10670 M4), 50 μL of 1 mg/mL in DMSO, 18 h, ciprofloxacin 5 µg/mL, read-out: Inhibition Zone of Test Microorganism); 14 mm in data set [4]; 12 mm in [11] (Bacillus subtilis (6633 B1), 50 μL of 1 mg/mL in DMSO, 18 h, ciprofloxacin 5 µg/mL, read-out: Inhibition Zone of Test Microorganism). Also, the “Inhibition Zone of Test Microorganism” value in [1], in data set [2] and in data set [3] was “-” in each case. Moreover, the CC50 at 72 h in data set [5] (HeLa cells (DSM ACC 57)) came out at 42.6 µM. In addition, the GI50 in data set [6] (setting [13]) was above 100 µM; in [7], 35.2 µM; in [8] (setting [14]), 29.2 µM; in data set [9] (K562, K-562, 72 h), 31.5 µM.
Take `O=C1CC(c2ccccc2O)Oc2cc3c(c(O)c21)OCO3` (stereo not drawn) [Compound 4, 5,2′-Dihydroxy-6,7-methylenedioxyflavanone]: in [5] (HeLa cells (DSM ACC 57)), the CC50 at 72 h was above 100 µM. For the same compound, the GI50 in data set [6] (setting [13]) turned out to be 81 µM; in data set [7] it was 73.3 µM; in [8] (setting [14]), 16 µM; in data set [9] (K562, K-562, 72 h) it was 48.7 µM.
As to `COc1cc(O)c2c(c1)OC(c1cccc(O)c1O)CC2=O` (stereo not drawn) [Compound 6, 5,2′,3′-Trihydroxy-7-methoxyflavanone], in data set [5] (HeLa cells (DSM ACC 57)), the CC50 at 72 h is above 100 µM. Besides, the GI50 came out at 70.9 µM in data set [6] (setting [13]); 68.2 µM in [7]; 16.9 µM in [8] (setting [14]); 56 µM in data set [9] (K562, K-562, 72 h).
Turning to `COc1cc(O)c2c(c1)OC(c1cccc(O)c1OC)C(O)C2=O` (stereo not drawn) [Compound 7, 3,5,3′-Trihydroxy-7,2′-dimethoxyflavanone], the “antiproliferative / cytotoxic effect in words” value in [12] is “reduced or no inhibitory effects”. Besides, in data set [5] (HeLa cells (DSM ACC 57)), the CC50 at 72 h was above 100 µM. Further, the concentration for 50% growth inhibition (GI50) in data set [6] (setting [13]) is above 100 µM; in [7] it was above 100 µM; in data set [8] (setting [14]), above 100 µM; in data set [9] (K562, K-562, 72 h), 97.6 µM.
On to `COc1ccccc1-c1coc2cc(O)c(OC)c(O)c2c1=O` [Compound 8, 5,7-Dihydroxy-6,2′-dimethoxyisoflavone], for which the “antiproliferative / cytotoxic effect in words” value in [12] is “reduced or no inhibitory effects”. Further, the CC50 at 72 h in data set [5] (HeLa cells (DSM ACC 57)) is above 100 µM. Moreover, the GI50 in data set [6] (setting [13]) was above 100 µM; in data set [7], above 100 µM; in [8] (setting [14]), above 100 µM; in [9] (K562, K-562, 72 h), above 100 µM.
For the compound `COc1cc2occ(-c3ccccc3OC3OC(CO)C(O)C(O)C3O)c(=O)c2c(O)c1OC` [Compound 9, 5-Hydroxy-6,7-dimethoxyisoflavone-2′-O-β-D-glucopyranoside], the “Inhibition Zone of Test Microorganism” value in data set [1], in data set [2] and in [3] was “-” each time. Moreover, in data set [4], the zone of inhibition at 1000 µg/mL was found to be 13 mm. Moreover, the “antibacterial activity in words” value in [4] was “selective activity”. In data set [12], the “antiproliferative / cytotoxic effect in words” value is recorded as “completely not effective”. For the same compound, the CC50 at 72 h in data set [5] (HeLa cells (DSM ACC 57)) was above 100 µM. Moreover, the GI50 in data set [6] (setting [13]) is above 100 µM; in data set [7], above 100 µM; in data set [8] (setting [14]), above 100 µM; in [9] (K562, K-562, 72 h), above 100 µM.
Regarding `CC[C@H](CC[C@@H](C)[C@H]1CC[C@H]2[C@@H]3CC=C4C[C@@H](O)CC[C@]4(C)[C@H]3CC[C@]12C)C(C)C` [Compound 12, β-Sitosterol], in data set [12], the “antiproliferative / cytotoxic effect in words” value is “neither an antiproliferative effect nor a cytotoxicity”. Besides, the CC50 at 72 h in data set [5] was above 100 µM. Besides, the GI50 in data set [6] (Homo sapiens, A549, 72 h, read-out: Antiproliferative Effect, GI50 (CI 95%)) is above 100 µM; in [7], above 100 µM; in data set [8] (Homo sapiens, THP-1, 72 h, read-out: Antiproliferative Effect, GI50 (CI 95%)), above 100 µM; in data set [9] (K562, 72 h), above 100 µM.
Turning to `COc1cccc2c1C(=O)c1c(O)c3c(c(O)c1C2=O)C[C@@](O)(C(=O)CO)C[C@@H]3O[C@H]1C[C@H](N)[C@H](O)[C@H](C)O1` [Doxorubicin, reference compound], in data set [5] (HeLa cells (DSM ACC 57)), the CC50 at 72 h turned out to be 0.48 µM. In addition, the GI50 was 0.13 µM in [7] and 0.13 µM in [9] (K562, K-562, 72 h).
Turning to `Cc1ccc(NC(=O)c2ccc(CN3CCN(C)CC3)cc2)cc1Nc1nccc(-c2cccnc2)n1` [Imatinib, imatinib, reference compound], in [5] (HeLa cells (DSM ACC 57)), the CC50 at 72 h stood at 78.6 µM. For the same compound, the GI50 came to 22.1 µM in [7] and 0.2 µM in data set [9] (K562, K-562, 72 h).
